Legend:
PepT1 [1] = biological target: T1, PepT1 (Homo sapiens, UniProt P46059); test: Activity measurement with glibenclamide on protein-loaded sensor chip (SurfE2R system), current amplitude on change from non-activating to activating solution; type: biochemical; parameters: expressed in transfected cells; host or cells: CHO cells (plasma membrane preparation); settings: 100 μM glibenclamide in both activating and non-activating solution; CHO plasma membrane preparation on sensor chip; FIG. 1
T1 sequence (P46059 1-708): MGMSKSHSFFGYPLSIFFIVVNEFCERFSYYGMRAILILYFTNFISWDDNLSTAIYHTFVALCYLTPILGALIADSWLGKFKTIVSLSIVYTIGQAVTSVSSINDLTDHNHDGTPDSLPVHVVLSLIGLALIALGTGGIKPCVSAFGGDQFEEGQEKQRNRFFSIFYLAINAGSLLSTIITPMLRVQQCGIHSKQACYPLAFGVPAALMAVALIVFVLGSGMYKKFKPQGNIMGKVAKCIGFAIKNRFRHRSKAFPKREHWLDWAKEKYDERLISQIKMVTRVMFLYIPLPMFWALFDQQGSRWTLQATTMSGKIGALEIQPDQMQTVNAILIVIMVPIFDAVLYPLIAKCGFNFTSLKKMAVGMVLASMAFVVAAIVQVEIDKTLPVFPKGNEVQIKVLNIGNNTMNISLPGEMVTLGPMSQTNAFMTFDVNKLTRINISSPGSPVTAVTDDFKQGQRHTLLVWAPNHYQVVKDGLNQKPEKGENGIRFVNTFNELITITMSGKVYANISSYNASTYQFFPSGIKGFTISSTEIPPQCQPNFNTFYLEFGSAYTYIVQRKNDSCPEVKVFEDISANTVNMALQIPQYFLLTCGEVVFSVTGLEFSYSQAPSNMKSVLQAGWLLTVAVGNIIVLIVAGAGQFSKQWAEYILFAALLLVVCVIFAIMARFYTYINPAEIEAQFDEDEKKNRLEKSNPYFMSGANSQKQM
Protocol: The measurements were carried out as above, although both solutions contained activating and non-activating solution and additionally 100 μM glibenclamide.

PepT1 [2] = biological target: T1, PepT1; parameters: host or cells: oocytes; settings: oocytes; cited from earlier work
[3] = Solubility of glibenclamide; type: physicochemical
peptide transporter = settings: Meredith et al. 1998; cited from earlier work

Effect on current amplitude (PepT1 transport current I(t)) (PepT1 [1]) | Solubility [3] | SMILES | IC50 (PepT1 [2]) | Affinity to the transporter (peptide transporter)
inhibition of the current amplitude | poor solubility | COc1ccc(Cl)cc1C(=O)NCCc1ccc(S(=O)(=O)NC(=O)NC2CCCCC2)cc1 [glibenclamide] | ~100 µM | –
– | – | NCc1ccc(C(=O)O)cc1 [4-aminomethyl benzoic acid] | – | only a slight affinity

Reference: patent US20080248486A1, “Type Pept1 Protein Assay” (Iongate Biosciences GmbH, priority 2004, published 2008)
